Here are results for 16 compounds from paper PMC6441007, “Semi-solid prodrug nanoparticles for long-acting delivery of water-soluble antiretroviral drugs within combination HIV therapies” (Nature Communications, 2019).

Values after ≈ are worked out from the molar mass of the structure shown. Where two headings read alike, the source gives them in different places.

The nature of data set [1]: Prodrug hydrolysis in undiluted human plasma (HPLC, half-life). The settings on record: 1 mM, 37 °C. The format is in vitro ADME. The method, then: (§1) As expected, rapid enzyme-catalysed hydrolysis of the 5’-carbonate group of 1–8 was observed, evident from the short plasma half-lives (<12 h) and relatively rapid initial hydrolysis rates in liver S9 and muscle S9 fractions (evaluated over a timeframe in which the carbamate masking group remains intact). […] Although chemically similar to capecitabine at the carbamate moiety, the plasma half-lives of longer-chain carbamates 12–16 were generally shorter. Initial hydrolysis rates in liver and muscle S9 fractions were within a sixfold range of capecitabine as measured in our hands, with the longer C5 to C8 analogues (13–16) undergoing hydrolysis most efficiently in liver S9 (Supplementary Figure 21). […] In all cases, the hydrolysis of the carbonate moiety of 1–8 was considerably faster in liver than muscle.
Reaction mixtures containing pooled mixed gender human plasma (Bioreclamation) were pre-incubated at 37 °C for 5 min. Reactions were initiated by the addition of prodrugs 1–8 (1 mM + 5% DMSO). […] The supernatant was diluted 10-fold into phosphate buffer (0.1 M, pH 7.4) and analysed by HPLC method described within Supplementary Information (monitoring starting material depletion at 305 nm). […]
323 buffer (0.1 M, pH 7.4) and analyzed by the HPLC method described above monitoring […]

Data set [2] can be described thus: Initial rate of prodrug hydrolysis in human liver S9 (HPLC). The settings on record: for Hydrolysis liver: IVIVE model input, determined experimentally. Format: in vitro ADME. The method, then:
as §1
(§2) Reaction mixtures containing mixed gender human skeletal muscle S9 (10.47 mg mL^−1, Bioreclamation) or phosphate buffer (0.1 M, pH 7.4) and pooled, mixed gender liver S9 (2.0 mg mL^−1, Xenotech) were pre-incubated at 37 °C for 5 min. Reactions were initiated by the addition of prodrugs 1–8 (1 mM + 5% DMSO). After incubation at 37 °C, aliquots were taken at time points measuring initial rate (Muscle S9: 1–3: 0.5, 10, 20, 30, 40, 50, and 60 min; 4: 0.5, 20, 40, 60, 80, 100, and 120 min; 5–6: 0.5, 30, 60, 90, 150, and 180 min; 7–8: 0.5 min, 30 min, 1 h, 3 h, 4 h, 5 h) (Liver S9: 1–2: 0.5, 1, 2, 3, 4, and 5 min; 3–6: 0.5, 2, 4, 6, 8, and 10 min; 7–8: 0.5, 5, 10, 15, 20, 25, 30, and 60 min). These aliquots were quenched in two volumes of ice-cold methanol. The quenched aliquots were then centrifuged at 16,873 × g for 5 min. The supernatant was diluted 10-fold into phosphate buffer (0.1 M, pH 7.4) and analysed by HPLC method described within Supplementary Information (monitoring starting material depletion at 305 nm). […]

Data set [3] is described as follows: Initial rate of prodrug hydrolysis in human skeletal muscle S9 (HPLC). The format is in vitro ADME. The settings on record: for Hydrolysis muscle: IVIVE model input, determined experimentally. The procedure: as §1, §2
The conditions of data set [4]: IVIVE model input parameter (Supplementary Table 4); source not given; cited from earlier work.
For data set [5] the following is noted: cited from earlier work.
The conditions of data set [6]: 25 °C; cited from earlier work.
In the next data set the test system is viral replication. The settings on record: plasma concentration; cited from earlier work.
In data set [7] the test system is human immunodeficiency virus type 1 reverse transcriptase. The following applies: intracellular FTC-TP; cited from earlier work.
[8] abbreviates: oral 400mg FTC, human clinical data, mean (minimum-maximum).
Where [9] appears, read: oral FTC at steady state, average of 3 independent clinical studies, mean (± SD), ref Supplementary References 3-5.

For orientation: melting point means the temperature of the solid-liquid transition. The compound `CCCOC(=O)Nc1nc(=O)n([C@@H]2CS[C@H](COC(=O)OCCC)O2)cc1F` [prodrug 3, Propyl (5-fluoro-2-oxo-1-((2R,5S)-2-(((propoxycarbonyl)oxy)methyl)-1,3-oxathiolan-5-yl)-1,2-dihydropyrimidin-4-yl)carbamate] displayed a melting point of 102 to 107 °C. Moreover, in data set [1], the “plasma half-life (hydrolysis of 5'-carbonate moiety)” value is “shortest”. Also, the “5'-carbonate hydrolysis rate in liver S9” value in data set [2] (1 mM, 37 °C, across series 1-8) is on record as “maximum”. In addition, the “5'-carbonate hydrolysis rate in muscle S9” value in data set [3] (1 mM, 37 °C, across series 1-8) was “maximum”.

For the compound `CCOC(=O)Nc1nc(=O)n([C@@H]2CS[C@H](COC(=O)OCC)O2)cc1F` [prodrug 2, Ethyl (1-((2R,5S)-2-(((ethoxycarbonyl)oxy)methyl)-1,3-oxathiolan-5-yl)-5-fluoro-2-oxo-1,2-dihydropyrimidin-4-yl)carbamate], the “plasma half-life (hydrolysis of 5'-carbonate moiety)” value in data set [1] is on record as “shortest”.

Regarding `CCCCCCOC(=O)Nc1nc(=O)n([C@@H]2CS[C@H](CO)O2)cc1F` [prodrug 14, Hexyl (5-fluoro-1-((2R,5S)-2-(hydroxymethyl)-1,3-oxathiolan-5-yl)-2-oxo-1,2-dihydropyrimidin-4-yl)carbamate], the melting point lay within 46 to 49 °C.

The compound `COC(=O)Nc1nc(=O)n([C@@H]2CS[C@H](COC(=O)OC)O2)cc1F` [prodrug 1, Methyl (5-fluoro-1-((2R,5S)-2-(((methoxycarbonyl)oxy)methyl)-1,3-oxathiolan-5-yl)-2-oxo-1,2-dihydropyrimidin-4-yl)carbamate] showed a melting point of 97 to 103 °C.

`Nc1nc(=O)n([C@@H]2CS[C@H](CO)O2)cc1F` [FTC, emtricitabine]: the “Plasma Cl” value in data set [4] is recorded as 19.35 L/h. In data set [5] (setting [8]), the “AUC, observed” value is given as 16484 (11524-21388) ng/h/mL; the “Cmax, observed” value is on record as 2968 (1582-4165) ng/mL; the “Cmin, observed” value was 63 (48-134) ng/mL. In addition, in data set [5] (setting [9]), the “AUC, observed” value was 9100 (± 1646) ng/h/mL; the “Cmax, observed” value was 1773 (± 46.1) ng/mL; the “Cmin, observed” value is 67 (± 25) ng/mL. In addition, in data set [6], the water solubility was 112 mg/mL (≈ 453 mM). Moreover, the “concentration inhibiting 90% of viral replication (IC90)” value in the data set with viral replication is 0.05 µg/mL.

Take `Nc1nc(=O)n([C@@H]2CS[C@H](COP(=O)(O)OP(=O)(O)OP(=O)(O)O)O2)cc1F` [FTC-TP, FTC triphosphate]: the “intracellular half-maximal inhibitory concentration (IC50)” value in data set [7] was 150 fmol per 10^6 cells.

Regarding `CCCCCCCCOC(=O)Nc1nc(=O)n([C@@H]2CS[C@H](COC(=O)OCCCCCCCC)O2)cc1F` [prodrug 8, Octyl (5-fluoro-1-((2R,5S)-2-((((octyloxy)carbonyl)oxy)methyl)-1,3-oxathiolan-5-yl)-2-oxo-1,2-dihydropyrimidin-4-yl)carbamate], the Hydrolysis liver in [2] was 0.0694 h⁻¹. For the same compound, the Hydrolysis muscle in data set [3] came to 0.0067 h⁻¹.

`CCCCCCCCOC(=O)Nc1nc(=O)n([C@@H]2CS[C@H](CO)O2)cc1F` [prodrug 16, Octyl (5-fluoro-1-((2R,5S)-2-(hydroxymethyl)-1,3-oxathiolan-5-yl)-2-oxo-1,2-dihydropyrimidin-4-yl)carbamate]: the Hydrolysis liver in [2] came out at 0.0282 h⁻¹. The Hydrolysis muscle in data set [3] stood at 0.004 h⁻¹.

Regarding `CCCCOC(=O)Nc1nc(=O)n([C@@H]2CS[C@H](COC(=O)OCCCC)O2)cc1F` [prodrug 4, Butyl (1-((2R,5S)-2-(((butoxycarbonyl)oxy)methyl)-1,3-oxathiolan-5-yl)-5-fluoro-2-oxo-1,2-dihydropyrimidin-4-yl)carbamate], the Hydrolysis liver in data set [2] amounted to 0.5786 h⁻¹. The Hydrolysis muscle in data set [3] is 0.0290 h⁻¹.

`CCCCCOC(=O)Nc1nc(=O)n([C@@H]2CS[C@H](CO)O2)cc1F` [prodrug 13, Pentyl (5-fluoro-1-((2R,5S)-2-(hydroxymethyl)-1,3-oxathiolan-5-yl)-2-oxo-1,2-dihydropyrimidin-4-yl)carbamate]: the melting point lay within 44 to 47 °C.

Regarding `CCCCCOC(=O)Nc1nc(=O)n([C@@H]2CS[C@H](COC(=O)OCCCCC)O2)cc1F` [prodrug 5, Pentyl (5-fluoro-2-oxo-1-((2R,5S)-2-((((pentyloxy)carbonyl)oxy)methyl)-1,3-oxathiolan-5-yl)-1,2-dihydropyrimidin-4-yl)carbamate], the melting point lay within 103 to 106 °C.

Compound `CCCCCCCOC(=O)Nc1nc(=O)n([C@@H]2CS[C@H](CO)O2)cc1F` [prodrug 15, Heptyl (5-fluoro-1-((2R,5S)-2-(hydroxymethyl)-1,3-oxathiolan-5-yl)-2-oxo-1,2-dihydropyrimidin-4-yl)carbamate] displayed a melting point of 46 °C.

The compound `CCCOC(=O)Nc1nc(=O)n([C@@H]2CS[C@H](CO)O2)cc1F` [prodrug 11, Propyl (5-fluoro-1-((2R,5S)-2-(hydroxymethyl)-1,3-oxathiolan-5-yl)-2-oxo-1,2-dihydropyrimidin-4-yl)carbamate] had a melting point of 82 to 86 °C.

With `CCCCCCOC(=O)Nc1nc(=O)n([C@@H]2CS[C@H](COC(=O)OCCCCCC)O2)cc1F` [prodrug 6, Hexyl (5-fluoro-1-((2R,5S)-2-((((hexyloxy)carbonyl)oxy)methyl)-1,3-oxathiolan-5-yl)-2-oxo-1,2-dihydropyrimidin-4-yl)carbamate], the melting point came out at 110 °C.

Turning to `COC(=O)Nc1nc(=O)n([C@@H]2CS[C@H](CO)O2)cc1F` [prodrug 9, Methyl (5-fluoro-1-((2R,5S)-2-(hydroxymethyl)-1,3-oxathiolan-5-yl)-2-oxo-1,2-dihydropyrimidin-4-yl)carbamate], the melting point was 85 to 89 °C.

Consider `CCCCOC(=O)Nc1nc(=O)n([C@@H]2CS[C@H](CO)O2)cc1F` [prodrug 12, Butyl (5-fluoro-1-((2R,5S)-2-(hydroxymethyl)-1,3-oxathiolan-5-yl)-2-oxo-1,2-dihydropyrimidin-4-yl)carbamate], for which the melting point came to 47 °C. The Hydrolysis liver in data set [2] stood at 0.0125 h⁻¹. Further, the Hydrolysis muscle in data set [3] worked out at 0.001 h⁻¹.
